Read-outs that look alike come from different tables or passages of the source. Values belong to the compound of their own block, whether it stands above or below them.
What was measured:
HDAC6 = HDAC6 (Homo sapiens (Human), UniProt Q9UBN7); experiment: HDAC enzyme assay, HDAC6
Method: (§1) Compounds for testing were diluted in DMSO to 50 fold the final concentration and a ten point three fold dilution series was made. The compounds were diluted in assay buffer (50 mM HEPES, pH 7.4, 100 mM KCl, 0.001% Tween-20, 0.05% BSA, 20 μM TCEP) to 6 fold their final concentration. […] The tripeptide substrate and trypsin at 0.05 μM final concentration were diluted in assay buffer at 6 fold their final concentration. The final enzyme concentrations used in these assays were 3.3 ng/ml (HDAC1), 0.2 ng/ml (HDAC2), 0.08 ng/ml (HDAC3) and 2 ng/ml (HDAC6). […] Five μl compounds and 20 μl of enzyme were added to wells of a black, opaque 384 well plate in duplicate. Enzyme and compound were incubated together at room temperature for 10 minutes. […] The development of fluorescence was monitored for 60 min and the linear rate of the reaction was calculated. The IC50 was determined using Graph Pad Prism by a four parameter curve fit.

HDAC3 = HDAC3 (Homo sapiens (Human), UniProt O15379); experiment: HDAC enzyme assay, HDAC3; assay type: biochemical
Method: as §1

refractory relapsed MM = settings: 202 patients with refractory relapsed MM; cited from earlier work

HDAC6, sequence (Q9UBN7 whole entry): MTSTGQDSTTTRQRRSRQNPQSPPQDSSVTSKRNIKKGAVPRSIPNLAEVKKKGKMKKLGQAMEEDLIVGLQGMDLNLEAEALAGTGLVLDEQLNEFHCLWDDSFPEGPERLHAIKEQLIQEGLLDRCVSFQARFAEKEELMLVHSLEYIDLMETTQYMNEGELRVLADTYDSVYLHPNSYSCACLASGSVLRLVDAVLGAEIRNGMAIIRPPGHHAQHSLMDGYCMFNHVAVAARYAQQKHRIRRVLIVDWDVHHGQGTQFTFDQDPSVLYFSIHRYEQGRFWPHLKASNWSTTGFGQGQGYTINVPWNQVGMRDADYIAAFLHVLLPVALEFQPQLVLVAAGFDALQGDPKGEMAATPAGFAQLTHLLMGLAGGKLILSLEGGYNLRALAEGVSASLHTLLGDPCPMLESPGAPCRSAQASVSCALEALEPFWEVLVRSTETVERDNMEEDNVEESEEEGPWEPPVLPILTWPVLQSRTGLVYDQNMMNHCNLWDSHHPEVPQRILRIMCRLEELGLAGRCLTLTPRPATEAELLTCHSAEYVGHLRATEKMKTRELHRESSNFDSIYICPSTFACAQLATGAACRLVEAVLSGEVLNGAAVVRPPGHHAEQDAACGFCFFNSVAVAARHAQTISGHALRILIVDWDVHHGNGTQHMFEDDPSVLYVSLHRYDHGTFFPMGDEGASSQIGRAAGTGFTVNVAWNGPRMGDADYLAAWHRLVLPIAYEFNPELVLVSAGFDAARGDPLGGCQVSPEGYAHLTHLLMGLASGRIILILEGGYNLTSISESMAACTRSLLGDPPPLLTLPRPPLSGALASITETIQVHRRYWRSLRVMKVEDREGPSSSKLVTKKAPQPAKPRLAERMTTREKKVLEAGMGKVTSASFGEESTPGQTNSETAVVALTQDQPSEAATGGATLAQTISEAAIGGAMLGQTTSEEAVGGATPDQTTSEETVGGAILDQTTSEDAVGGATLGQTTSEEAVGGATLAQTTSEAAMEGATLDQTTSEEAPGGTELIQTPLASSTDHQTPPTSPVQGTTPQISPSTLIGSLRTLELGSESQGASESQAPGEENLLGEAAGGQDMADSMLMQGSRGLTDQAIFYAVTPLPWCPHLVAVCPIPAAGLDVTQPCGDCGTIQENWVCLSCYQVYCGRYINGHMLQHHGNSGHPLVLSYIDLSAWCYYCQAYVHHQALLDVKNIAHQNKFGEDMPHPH
HDAC3, sequence (O15379 whole entry): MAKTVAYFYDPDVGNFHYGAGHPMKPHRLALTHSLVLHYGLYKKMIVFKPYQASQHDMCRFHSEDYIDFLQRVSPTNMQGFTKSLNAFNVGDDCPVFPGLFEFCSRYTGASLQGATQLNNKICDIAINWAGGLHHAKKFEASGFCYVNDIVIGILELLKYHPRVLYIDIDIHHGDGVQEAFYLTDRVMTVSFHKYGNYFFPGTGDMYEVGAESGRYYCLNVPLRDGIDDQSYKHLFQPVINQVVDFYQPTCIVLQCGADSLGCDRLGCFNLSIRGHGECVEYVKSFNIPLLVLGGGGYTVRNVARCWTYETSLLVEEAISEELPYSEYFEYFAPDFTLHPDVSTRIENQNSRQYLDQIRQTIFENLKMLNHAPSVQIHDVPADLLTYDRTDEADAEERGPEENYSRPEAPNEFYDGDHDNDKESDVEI
HDAC3, sequence (Q9Y618 395-489 partner): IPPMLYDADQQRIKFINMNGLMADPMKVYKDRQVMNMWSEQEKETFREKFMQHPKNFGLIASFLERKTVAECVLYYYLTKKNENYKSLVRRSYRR

SMILES: NC(=O)CCCCCCNC(=O)c1cnc(N(c2ccccc2)c2ccccc2)nc1 [N-(7-amino-7-oxoheptyl)-2-(diphenylamino)pyrimidine-5-carboxamide]
IC50 (HDAC6; read-out: IC50 HDAC6, μM): > 50 µM
IC50 (HDAC3; μM, read-out: IC50 HDAC3): > 50 µM

IC50 (HDAC6): 0.007 µM
IC50 (HDAC3; 0.08 ng/ml enzyme, 17 μM tripeptide substrate, read-out: IC50(nM) HDAC3): 0.243 µM
SMILES: COC(c1ccccc1)(c1ccccc1)c1ccc(C(=O)NCCCCCCC(=O)NO)cc1 [N-(7-(hydroxyamino)-7-oxoheptyl)-4-(methoxydiphenylmethyl)benzamide]

SMILES: CC(C)C[C@H](NC(=O)[C@H](Cc1ccccc1)NC(=O)c1cnccn1)B(O)O [bortezomib]
complete and near complete responses (refractory relapsed MM): 10%
patients did not respond (refractory relapsed MM): 65%
responses (refractory relapsed MM): 35%

Reference: patent publication US8609678B2, “Reverse amide compounds as protein deacetylase inhibitors and methods of use thereof” (Acetylon Pharmaceuticals, priority 2010, dated 2013)
